# How the values were obtained:
# Details in all cases: growth mode: biofilm, 24 h; exposure time: 24 h
# colistin [1] = compound: T1, CCC(C)CCCC(=O)N[C@@H](CCN)C(=O)N[C@H](C(=O)N[C@@H](CCN)C(=O)N[C@H]1CCNC(=O)[C@H]([C@@H](C)O)NC(=O)[C@H](CCN)NC(=O)[C@H](CCN)NC(=O)[C@H](CC(C)C)NC(=O)[C@@H](CC(C)C)NC(=O)[C@H](CCN)NC1=O)[C@@H](C)O [colistin]; assay: minimum concentration of killing, 1-log CFU reduction of biofilm (MCK90); higher = more biofilm tolerance
# Procedure: (§1)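 Clinical P. aeruginosa isolates were grown as static biofilms for 24 h at 37 °C in LB in half-area 96-well plates, then exposed for 24 h to colistin at 1, 4, 16, 64, 256 or […]. Surviving CFU were counted by spotting serial dilutions. MCK is the lowest tested concentration giving the stated log reduction in CFU versus an untreated control; '>1024' means the reduction was not reached at the top dose, and 1 is the lowest dose tested (≤1).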
# tobramycin [2] = compound: T2, NC[C@H]1O[C@H](O[C@H]2[C@H](O)[C@@H](O[C@H]3O[C@H](CO)[C@@H](O)[C@H](N)[C@H]3O)[C@H](N)C[C@@H]2N)[C@H](N)C[C@@H]1O [tobramycin]; assay: minimum concentration eradicating biofilm below detection limit (MCK-E); higher = more biofilm tolerance
# Procedure: as §1, with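 “tobramycin” for “colistin”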
# tobramycin [3] = compound: T2, tobramycin; assay: minimum concentration of killing, 4-log CFU reduction of biofilm (MCK99.99); higher = more biofilm tolerance
# Procedure: as §1, with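 “tobramycin” for “colistin”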
# tobramycin [4] = compound: T2, tobramycin; assay: minimum concentration of killing, 1-log CFU reduction of biofilm (MCK90); higher = more biofilm tolerance
# Procedure: as §1, with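 “tobramycin” for “colistin”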
# colistin [5] = compound: T1, colistin; assay: minimum concentration eradicating biofilm below detection limit (MCK-E); higher = more biofilm tolerance
# Procedure: as §1
# colistin [6] = compound: T1, colistin; assay: minimum concentration of killing, 4-log CFU reduction of biofilm (MCK99.99); higher = more biofilm tolerance
# Procedure: as §1
# colistin [7] = compound: T1, colistin; assay: minimum concentration of killing, 2-log CFU reduction of biofilm (MCK99); higher = more biofilm tolerance
# Procedure: as §1
# tobramycin [8] = compound: T2, tobramycin; assay: as above
# Procedure: as §1, with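 “tobramycin” for “colistin”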
test system,measurement,setting,value
Pseudomonas aeruginosa clinical isolate CH2660,minimum concentration of killing,colistin [1],64 µg/mL
same,minimum concentration eradicating biofilm below detection limit,tobramycin [2],256 µg/mL
same,minimum concentration of killing,tobramycin [3],64 µg/mL
same,minimum concentration of killing,tobramycin [4],4 µg/mL
same,minimum concentration eradicating biofilm below detection limit,colistin [5],256 µg/mL
same,minimum concentration of killing,colistin [6],256 µg/mL
same,minimum concentration of killing,colistin [7],256 µg/mL
same,minimum concentration of killing,tobramycin [8],64 µg/mL
Pseudomonas aeruginosa clinical isolate CH2672,minimum concentration of killing,colistin [1],256 µg/mL
same,minimum concentration eradicating biofilm below detection limit,tobramycin [2],> 1020 µg/mL
same,minimum concentration of killing,tobramycin [3],256 µg/mL
same,minimum concentration of killing,tobramycin [4],16 µg/mL
same,minimum concentration eradicating biofilm below detection limit,colistin [5],256 µg/mL
same,minimum concentration of killing,colistin [6],256 µg/mL
same,minimum concentration of killing,colistin [7],256 µg/mL
same,minimum concentration of killing,tobramycin [8],64 µg/mL
Pseudomonas aeruginosa clinical isolate CH2677,minimum concentration of killing,colistin [1],64 µg/mL
same,minimum concentration eradicating biofilm below detection limit,tobramycin [2],> 1020 µg/mL
same,minimum concentration of killing,tobramycin [3],1020 µg/mL
same,minimum concentration of killing,tobramycin [4],256 µg/mL
same,minimum concentration eradicating biofilm below detection limit,colistin [5],256 µg/mL
same,minimum concentration of killing,colistin [6],256 µg/mL
same,minimum concentration of killing,colistin [7],64 µg/mL
same,minimum concentration of killing,tobramycin [8],1020 µg/mL
Pseudomonas aeruginosa clinical isolate CH5550,minimum concentration of killing,colistin [1],256 µg/mL
same,minimum concentration eradicating biofilm below detection limit,tobramycin [2],1020 µg/mL
same,minimum concentration of killing,tobramycin [3],1020 µg/mL
same,minimum concentration of killing,tobramycin [4],16 µg/mL
same,minimum concentration eradicating biofilm below detection limit,colistin [5],> 1020 µg/mL
same,minimum concentration of killing,colistin [6],> 1020 µg/mL
same,minimum concentration of killing,colistin [7],256 µg/mL
same,minimum concentration of killing,tobramycin [8],16 µg/mL
Pseudomonas aeruginosa clinical isolate CH5596,minimum concentration of killing,colistin [1],64 µg/mL
same,minimum concentration eradicating biofilm below detection limit,tobramycin [2],256 µg/mL
same,minimum concentration of killing,tobramycin [3],64 µg/mL
same,minimum concentration of killing,tobramycin [4],4 µg/mL
same,minimum concentration eradicating biofilm below detection limit,colistin [5],256 µg/mL
same,minimum concentration of killing,colistin [6],256 µg/mL
same,minimum concentration of killing,colistin [7],64 µg/mL
same,minimum concentration of killing,tobramycin [8],4 µg/mL
Pseudomonas aeruginosa clinical isolate CH5597,minimum concentration of killing,colistin [1],64 µg/mL
same,minimum concentration eradicating biofilm below detection limit,tobramycin [2],256 µg/mL
same,minimum concentration of killing,tobramycin [3],256 µg/mL
same,minimum concentration of killing,tobramycin [4],≤ 1 µg/mL
same,minimum concentration eradicating biofilm below detection limit,colistin [5],64 µg/mL
same,minimum concentration of killing,colistin [6],64 µg/mL
same,minimum concentration of killing,colistin [7],64 µg/mL
same,minimum concentration of killing,tobramycin [8],64 µg/mL
Pseudomonas aeruginosa clinical isolate CH5621,minimum concentration of killing,colistin [1],256 µg/mL
same,minimum concentration eradicating biofilm below detection limit,tobramycin [2],> 1020 µg/mL
same,minimum concentration of killing,tobramycin [3],> 1020 µg/mL
same,minimum concentration of killing,tobramycin [4],64 µg/mL
same,minimum concentration eradicating biofilm below detection limit,colistin [5],256 µg/mL
same,minimum concentration of killing,colistin [6],256 µg/mL
same,minimum concentration of killing,colistin [7],256 µg/mL
same,minimum concentration of killing,tobramycin [8],1020 µg/mL
Pseudomonas aeruginosa clinical isolate CH5638,minimum concentration of killing,colistin [1],64 µg/mL
same,minimum concentration eradicating biofilm below detection limit,tobramycin [2],1020 µg/mL
same,minimum concentration of killing,tobramycin [3],1020 µg/mL
same,minimum concentration of killing,tobramycin [4],16 µg/mL
same,minimum concentration eradicating biofilm below detection limit,colistin [5],256 µg/mL
same,minimum concentration of killing,colistin [6],256 µg/mL
same,minimum concentration of killing,colistin [7],256 µg/mL
same,minimum concentration of killing,tobramycin [8],16 µg/mL
Pseudomonas aeruginosa clinical isolate ESP001,minimum concentration of killing,colistin [1],64 µg/mL
same,minimum concentration eradicating biofilm below detection limit,tobramycin [2],1020 µg/mL
same,minimum concentration of killing,tobramycin [3],256 µg/mL
same,minimum concentration of killing,tobramycin [4],16 µg/mL
same,minimum concentration eradicating biofilm below detection limit,colistin [5],256 µg/mL
same,minimum concentration of killing,colistin [6],256 µg/mL
same,minimum concentration of killing,colistin [7],64 µg/mL
same,minimum concentration of killing,tobramycin [8],256 µg/mL
Pseudomonas aeruginosa clinical isolate ESP002,minimum concentration of killing,colistin [1],4 µg/mL
same,minimum concentration eradicating biofilm below detection limit,tobramycin [2],256 µg/mL
same,minimum concentration of killing,tobramycin [3],256 µg/mL
same,minimum concentration of killing,tobramycin [4],256 µg/mL
same,minimum concentration eradicating biofilm below detection limit,colistin [5],256 µg/mL
same,minimum concentration of killing,colistin [6],256 µg/mL
same,minimum concentration of killing,colistin [7],64 µg/mL
same,minimum concentration of killing,tobramycin [8],256 µg/mL
Pseudomonas aeruginosa clinical isolate ESP003,minimum concentration of killing,colistin [1],256 µg/mL
same,minimum concentration eradicating biofilm below detection limit,tobramycin [2],1020 µg/mL
same,minimum concentration of killing,tobramycin [3],1020 µg/mL
same,minimum concentration of killing,tobramycin [4],16 µg/mL
same,minimum concentration eradicating biofilm below detection limit,colistin [5],256 µg/mL
same,minimum concentration of killing,colistin [6],256 µg/mL
same,minimum concentration of killing,colistin [7],256 µg/mL
same,minimum concentration of killing,tobramycin [8],256 µg/mL
Pseudomonas aeruginosa clinical isolate ESP004,minimum concentration of killing,colistin [1],64 µg/mL
same,minimum concentration eradicating biofilm below detection limit,tobramycin [2],> 1020 µg/mL
same,minimum concentration of killing,tobramycin [3],1020 µg/mL
same,minimum concentration of killing,tobramycin [4],256 µg/mL
same,minimum concentration eradicating biofilm below detection limit,colistin [5],256 µg/mL
same,minimum concentration of killing,colistin [6],256 µg/mL
same,minimum concentration of killing,colistin [7],256 µg/mL
same,minimum concentration of killing,tobramycin [8],1020 µg/mL
Pseudomonas aeruginosa clinical isolate ESP006,minimum concentration of killing,colistin [1],64 µg/mL
same,minimum concentration eradicating biofilm below detection limit,tobramycin [2],1020 µg/mL
same,minimum concentration of killing,tobramycin [3],256 µg/mL
same,minimum concentration of killing,tobramycin [4],16 µg/mL
same,minimum concentration eradicating biofilm below detection limit,colistin [5],256 µg/mL
same,minimum concentration of killing,colistin [6],64 µg/mL
same,minimum concentration of killing,colistin [7],64 µg/mL
same,minimum concentration of killing,tobramycin [8],64 µg/mL
Pseudomonas aeruginosa clinical isolate ESP009,minimum concentration of killing,colistin [1],64 µg/mL
same,minimum concentration eradicating biofilm below detection limit,tobramycin [2],1020 µg/mL
same,minimum concentration of killing,tobramycin [3],256 µg/mL
same,minimum concentration of killing,tobramycin [4],16 µg/mL
same,minimum concentration eradicating biofilm below detection limit,colistin [5],64 µg/mL
same,minimum concentration of killing,colistin [6],64 µg/mL
same,minimum concentration of killing,colistin [7],64 µg/mL
same,minimum concentration of killing,tobramycin [8],16 µg/mL
Pseudomonas aeruginosa clinical isolate ESP011,minimum concentration of killing,colistin [1],16 µg/mL
same,minimum concentration eradicating biofilm below detection limit,tobramycin [2],1020 µg/mL
same,minimum concentration of killing,tobramycin [3],1020 µg/mL
same,minimum concentration of killing,tobramycin [4],16 µg/mL
same,minimum concentration eradicating biofilm below detection limit,colistin [5],64 µg/mL
same,minimum concentration of killing,colistin [6],64 µg/mL
same,minimum concentration of killing,colistin [7],16 µg/mL
same,minimum concentration of killing,tobramycin [8],256 µg/mL
Pseudomonas aeruginosa clinical isolate ESP012,minimum concentration of killing,colistin [1],64 µg/mL
same,minimum concentration eradicating biofilm below detection limit,tobramycin [2],> 1020 µg/mL
same,minimum concentration of killing,tobramycin [3],> 1020 µg/mL
same,minimum concentration of killing,tobramycin [4],256 µg/mL
same,minimum concentration eradicating biofilm below detection limit,colistin [5],64 µg/mL
same,minimum concentration of killing,colistin [6],64 µg/mL
same,minimum concentration of killing,colistin [7],64 µg/mL
same,minimum concentration of killing,tobramycin [8],> 1020 µg/mL
Pseudomonas aeruginosa clinical isolate ESP013,minimum concentration of killing,colistin [1],64 µg/mL
same,minimum concentration eradicating biofilm below detection limit,tobramycin [2],> 1020 µg/mL
same,minimum concentration of killing,tobramycin [3],> 1020 µg/mL
same,minimum concentration of killing,tobramycin [4],> 1020 µg/mL
same,minimum concentration eradicating biofilm below detection limit,colistin [5],1020 µg/mL
same,minimum concentration of killing,colistin [6],256 µg/mL
same,minimum concentration of killing,colistin [7],64 µg/mL
same,minimum concentration of killing,tobramycin [8],> 1020 µg/mL
Pseudomonas aeruginosa clinical isolate ESP015,minimum concentration of killing,colistin [1],64 µg/mL
same,minimum concentration eradicating biofilm below detection limit,tobramycin [2],256 µg/mL
same,minimum concentration of killing,tobramycin [3],256 µg/mL
same,minimum concentration of killing,tobramycin [4],4 µg/mL
same,minimum concentration eradicating biofilm below detection limit,colistin [5],256 µg/mL
same,minimum concentration of killing,colistin [6],256 µg/mL
same,minimum concentration of killing,colistin [7],256 µg/mL
same,minimum concentration of killing,tobramycin [8],64 µg/mL

# — the supplement of paper PMC8920030
